From patent publication US20260060910A1, “COMPOSITION FOR ACTIVATING EXTERNAL BARRIER” (Yuki Gosei Kogyo Co., Ltd., priority 2024, published 2026) come the findings set out here.

The experiment relates to miRNA contained in exosomes secreted from C2C12 cells. The settings on record: exosomes from β-alanine-treated C2C12 cells vs control; microarray; FIG. 4. On the procedure: In this example, miRNAs in exosomes were analyzed by microarray.
The exosome solution purified in Example 2 was used for microarray analysis. The microarray experiment was outsourced to Kamakura Techno Science (Kanagawa, Japan). Based on the data obtained, samples with a ratio of 1.5 or more compared to the control and one of the signal values of two samples exceeding 100 were extracted as miRNAs with altered transcription levels.

SMILES strings stand for the structures.

Take `NCCC(=O)O` [β-alanine]: the “number of miRNAs decreased” value stood at 14 and the “number of miRNAs increased” value is “six”.
